The term IC50 denotes the concentration at which inhibition is half-maximal.

One experiment has as its system MCF-7. Kind of experiment: Cancer cell proliferation assay, single agent. The format is cell-based. Conditions: Homo sapiens.
The target in the next experiment is FMS kinase (Homo sapiens (Human), UniProt P07333). Kind of experiment: LanthaScreen kinase assay (ATP, fluorescent-PolyGT substrate, TR-FRET). The experiment is classed as biochemical.
Where [1] appears, read: MCF7, read-out: IC50 (nM) MCF-7.
[2] abbreviates: MCF7, MCF-7 cells, treated for 24-168 hours, read-out: IC50 (nM) MCF-7.

Where two headings read alike, the source gives them in different places.

Sequence of FMS kinase (P07333 20-972): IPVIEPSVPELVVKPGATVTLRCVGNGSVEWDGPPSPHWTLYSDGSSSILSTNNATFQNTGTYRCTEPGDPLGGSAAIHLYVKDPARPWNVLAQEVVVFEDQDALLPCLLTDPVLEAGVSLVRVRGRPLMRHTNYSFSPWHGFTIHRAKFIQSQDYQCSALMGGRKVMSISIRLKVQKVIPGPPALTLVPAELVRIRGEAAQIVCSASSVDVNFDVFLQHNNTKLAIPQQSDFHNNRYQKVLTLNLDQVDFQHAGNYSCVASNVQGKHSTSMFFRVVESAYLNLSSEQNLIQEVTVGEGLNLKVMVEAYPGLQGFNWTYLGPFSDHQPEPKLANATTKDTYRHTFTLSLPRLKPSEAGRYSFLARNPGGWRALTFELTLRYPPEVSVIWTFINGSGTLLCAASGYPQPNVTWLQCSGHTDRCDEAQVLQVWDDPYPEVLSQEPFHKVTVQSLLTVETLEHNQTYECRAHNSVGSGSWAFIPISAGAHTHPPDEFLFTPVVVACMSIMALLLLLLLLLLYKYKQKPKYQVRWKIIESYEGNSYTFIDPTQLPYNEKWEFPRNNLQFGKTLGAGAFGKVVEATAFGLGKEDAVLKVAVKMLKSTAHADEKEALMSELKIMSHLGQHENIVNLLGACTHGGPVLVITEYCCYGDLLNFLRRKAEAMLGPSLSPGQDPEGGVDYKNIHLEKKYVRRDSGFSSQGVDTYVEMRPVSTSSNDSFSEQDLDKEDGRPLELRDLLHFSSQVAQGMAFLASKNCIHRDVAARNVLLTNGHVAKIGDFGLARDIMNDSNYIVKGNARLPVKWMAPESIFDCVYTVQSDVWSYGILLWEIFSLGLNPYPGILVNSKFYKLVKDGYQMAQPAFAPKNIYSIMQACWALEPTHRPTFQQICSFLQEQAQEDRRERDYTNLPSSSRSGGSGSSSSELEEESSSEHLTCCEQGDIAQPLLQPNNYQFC

As for `CC(C)N1CCOc2c(F)cc(-c3nc(Nc4ccc5c(c4)CNCC5)ncc3F)cc21` [Compound 16, N-(5-fluoro-4-(8-fluoro-4-isopropyl-3,4-dihydro-2H-benzo[b][1,4]oxazin-6-yl)pyrimidin-2-yl)-1,2,3,4-tetrahydroisoquinolin-7-amine], the figures for the concentration for half-maximal inhibition (IC50) in the experiment with MCF-7 (setting [1]) and on FMS kinase were 3.8 nM and 2.5 nM, respectively.

As to `CC(C)N1CCc2cc(Nc3ncc(F)c(-c4cc(F)c5c(c4)N(C(C)C)CCO5)n3)ccc2C1` [Compound 22, N-(5-fluoro-4-(8-fluoro-4-isopropyl-3,4-dihydro-2H-benzo[b][1,4]oxazin-6-yl)pyrimidin-2-yl)-2-isopropyl-1,2,3,4-tetrahydroisoquinolin-6-amine], the 50% inhibitory concentration (IC50) with MCF-7 (setting [2]) is less than 10 nM; against FMS kinase, 6.5 nM.

On to `CC(C)N1CCOc2c(F)cc(-c3nc(Nc4cccc5c4CCNC5)ncc3F)cc21` [Compound 15, N-(5-fluoro-4-(8-fluoro-4-isopropyl-3,4-dihydro-2H-benzo[b][1,4]oxazin-6-yl)pyrimidin-2-yl)-1,2,3,4-tetrahydroisoquinolin-5-amine], for which the half-inhibitory concentration (IC50) is 114 nM with MCF-7 (setting [1]) and 22 nM at FMS kinase.

Turning to `CC(C)N1CCOc2c(F)cc(-c3nc(Nc4ccc(C5CCNCC5)c(F)c4)ncc3F)cc21` [Compound 18, 5-fluoro-N-(3-fluoro-4-(piperidin-4-yl)phenyl)-4-(8-fluoro-4-isopropyl-3,4-dihydro-2H-benzo[b][1,4]oxazin-6-yl) pyrimidin-2-amine], the IC50 was less than 10 nM in the experiment on MCF-7 (setting [1]) and 19 nM on FMS kinase.

Take `CC(C)N1CCOc2c(F)cc(-c3nc(Nc4ccc(N5CCNCC5)c(C#N)c4)ncc3F)cc21` [Compound 21, 5-((5-fluoro-4-(8-fluoro-4-isopropyl-3,4-dihydro-2H-benzo[b][1,4]oxazin-6-yl)pyrimidin-2-yl)amino)-2-(piperazin-1-yl) benzonitrile]: the values for the half-maximal inhibitory concentration (IC50) with MCF-7 (setting [1]) and on FMS kinase were less than 10 nM and 163 nM, respectively.

For `CC(C)N1CCOc2c(F)cc(-c3nc(Nc4ccc(N5CCC(N(C)C)CC5)c(C(F)(F)F)c4)ncc3F)cc21` [Compound 178, N-(4-(4-(dimethylamino)piperidin-1-yl)-3-(trifluoromethyl)phenyl)-5-fluoro-4-(8-fluoro-4-isopropyl-3,4-dihydro-2H-benzo[b][1,4]oxazin-6-yl)pyrimidin-2-amine], the IC50 came to 210 nM in the experiment on MCF-7 (setting [2]) and 5 nM against FMS kinase.

As to `CC(C)N1CCc2ccc(Nc3ncc(F)c(-c4cc(F)c5c(c4)N(C(C)C)CCO5)n3)cc2C1` [Compound 19, N-(5-fluoro-4-(8-fluoro-4-isopropyl-3,4-dihydro-2H-benzo[b][1,4]oxazin-6-yl)pyrimidin-2-yl)-2-isopropyl-1,2,3,4-tetrahydroisoquinolin-7-amine], the IC50 with MCF-7 (setting [2]) was less than 10 nM; at FMS kinase it was 3 nM.

For the compound `CC(C)N1CCOc2c(F)cc(-c3nc(Nc4ccc5c(c4)CC(N(C)C)C5)ncc3F)cc21` (stereo not shown) [Compound 37, N^5-(5-fluoro-4-(8-fluoro-4-isopropyl-3,4-dihydro-2H-benzo[b][1,4]oxazin-6-yl)pyrimidin-2-yl)-N^2,N^2-dimethyl-2,3-dihydro-1H-indene-2,5-diamine], the IC50 in the experiment on MCF-7 (setting [1]) is less than 14 nM.

For `CC(C)N1CCOc2c(F)cc(-c3nc(Nc4ccc(N5CCNCC5)c(F)c4F)ncc3F)cc21` [Compound 28, N-(2,3-difluoro-4-(piperazin-1-yl)phenyl)-5-fluoro-4-(8-fluoro-4-isopropyl-3,4-dihydro-2H-benzo[b][1,4]oxazin-6-yl)pyrimidin-2-amine], the half-maximal inhibitory concentration (IC50) with MCF-7 (setting [1]) was 150 nM; against FMS kinase, 123 nM.

On to `CC(C)N1CCOc2c(F)cc(-c3nc(Nc4ccn(C5=CCNCC5)c(=O)c4)ncc3F)cc21` [Compound 39, 4-((5-fluoro-4-(8-fluoro-4-isopropyl-3,4-dihydro-2H-benzo[b][1,4]oxazin-6-yl)pyrimidin-2-yl)amino)-1′,2′,3′,6′-tetrahydro-2H-[1,4′-bipyridin]-2-one], for which the IC50 stood at 45 nM with MCF-7 (setting [2]) and 33 nM at FMS kinase.

As for `CC(C)N1CCOc2c(F)cc(-c3nc(Nc4ccc(N5CCNCC5)cc4F)ncc3F)cc21` [Compound 11, 5-fluoro-N-(2-fluoro-4-(piperazin-1-yl)phenyl)-4-(8-fluoro-4-isopropyl-3,4-dihydro-2H-benzo[b][1,4]oxazin-6-yl)pyrimidin-2-amine], the results for the IC50 with MCF-7 (setting [1]) and at FMS kinase were 225 nM and 250 nM, respectively.

Regarding `CC(C)N1CCOc2c(F)cc(-c3nc(Nc4cc(N5CCNCC5)ccn4)ncc3F)cc21` [Compound 5, 5-fluoro-4-(8-fluoro-4-isopropyl-3,4-dihydro-2H-benzo[b][1,4]oxazin-6-yl)-N-(4-(piperazin-1-yl)pyridin-2-yl)pyrimidin-2-amine], at FMS kinase, the IC50 was more than 3630 nM.

For the compound `CC(C)N1CCOc2c(F)cc(-c3nc(Nc4ccc5c(c4)CCNC5)ncc3F)cc21` [Compound 13, N-(5-fluoro-4-(8-fluoro-4-isopropyl-3,4-dihydro-2H-benzo[b][1,4]oxazin-6-yl)pyrimidin-2-yl)-1,2,3,4-tetrahydroisoquinolin-6-amine], the IC50 in the experiment with MCF-7 (setting [1]) was 3.8 nM.

As to `CC(C)N1CCOc2c(F)cc(-c3nc(Nc4ccc(N5CCN(C)CC5)cc4)ncc3F)cc21` [Compound 6, 5-fluoro-4-(8-fluoro-4-isopropyl-3,4-dihydro-2H-benzo[b][1,4]oxazin-6-yl)-N-(4-(4-methylpiperazin-1-yl)phenyl)pyrimidin-2-amine], the values for the IC50 in the experiment with MCF-7 (setting [2]) and against FMS kinase were 30 nM and 82 nM, respectively.

In the case of `CC(C)N1CCc2c(cccc2Nc2ncc(F)c(-c3cc(F)c4c(c3)N(C(C)C)CCO4)n2)C1` [Compound 20, N-(5-fluoro-4-(8-fluoro-4-isopropyl-3,4-dihydro-2H-benzo[b][1,4]oxazin-6-yl)pyrimidin-2-yl)-2-isopropyl-, 2,3,4-tetrahydroisoquinolin-5-amine], the IC50 in the experiment with MCF-7 (setting [2]) is 145 nM; on FMS kinase, 17 nM.

On to `CC(C)N1CCOc2c(F)cc(-c3nc(Nc4cc(F)c(N5CCNCC5)cc4F)ncc3F)cc21` [Compound 31, N-(2,5-difluoro-4-(piperazin-1-yl)phenyl)-5-fluoro-4-(8-fluoro-4-isopropyl-3,4-dihydro-2H-benzo[b][1,4]oxazin-6-yl)pyrimidin-2-amine], for which the results for the IC50 with MCF-7 (setting [1]) and against FMS kinase were 193 nM and 49 nM, respectively.

Turning to `COc1cc(Nc2ncc(F)c(-c3cc(F)c4c(c3)N(C(C)C)CCO4)n2)ccc1N1CCNCC1` [Compound 29, 5-fluoro-4-(8-fluoro-4-isopropyl-3,4-dihydro-2H-benzo[b][1,4]oxazin-6-yl)-N-(3-methoxy-4-(piperazin-1-yl)phenyl)pyrimidin-2-amine], the IC50 with MCF-7 (setting [1]) was determined as 48 nM; against FMS kinase, 2.5 nM.

Regarding `CC(C)N1CCOc2c(F)cc(-c3nc(Nc4ccc(N5CCN(C)CC5)c(F)c4)ncc3F)cc21` [Compound 14, 5-fluoro-N-(3-fluoro-4-(4-methylpiperazin-1-yl)phenyl)-4-(8-fluoro-4-isopropyl-3,4-dihydro-2H-benzo[b][1,4]oxazin-6-yl) pyrimidin-2-amine], the IC50 with MCF-7 (setting [1]) was found to be 11 nM; against FMS kinase, 49 nM.

The compound `CCN1CCN(Cc2ccc(Nc3ncc(F)c(-c4cc(F)c5c(c4)N(C(=O)C4CC4)CCO5)n3)nc2)CC1` [Compound 8, cyclopropyl(6-(2-((5-((4-ethylpiperazin-1-yl)methyl)pyridin-2-yl)amino)-5-fluoropyrimidin-4-yl)-8-fluoro-2,3-dihydro-4H-benzo[b][1,4]oxazin-4-yl)methanone] registered an IC50 at FMS kinase of more than 5000 nM.

Source of the values: US11174252B2, “Heterocyclic compounds as kinase inhibitors” (priority 2018, dated 2021).
